{"source": "patent US20250204535A1", "about": "“Rodenticide” (priority 2022, published 2025)", "key": {"[1]": {"system": "Neonatal rat cardiomyocytes", "test": "Screening purified venom fractions for rat cardiomyocyte toxicity (resazurin)", "assay_type": "cell-based", "procedure": "(§1) Hearts were collected from euthanised 1-2-day old neonatal rat pups and transferred into filter sterilised ice-cold Hanks balanced salt solution (HBSS) containing 2% Pen-strep. Hearts were washed in the HBSS, any non-heart tissue removed and then cut into 1-3 mm pieces and placed in 40 ml filter sterilised, ice cold 0.1% trypsin/HBSS. The heart pieces in trypsin were place in a large ice bucket and incubated overnight at 4° C. on a rocker with gentle agitation to allow the tissue to digest.\nThe following day, all trypsin was aspirated from the tissue and the tissue transferred evenly into 2 ml Eppendorf tubes. The tissue was then digested further using a 37° C. 1 mg/ml collagenase/HBSS (filter sterilised) solution. […]\n(§2) Neonatal rat cardiomyocytes and cardiac fibroblasts were treated with purified venom fractions suspected of being cardiotoxins at doses of 12.5, 7.5, 6 μg/ml, with rat cardiomyocytes being treated at additional concentrations of 3.5, 2.5, 1 and 0.5 μg/ml for 2 hs in a humidified incubator at 37° C., 5% CO2. […] The change in fluorescence of the resazurin dye was monitored over a 5 h timeframe using a BMG Fluostar plate reader. Percent inhibition of both cell types in response to each fraction at each dose were calculated and plotted graphically."}, "[2]": {"system": "neonatal rat cardiac fibroblast cells", "test": "Screening purified venom fractions for rat cardiac fibroblast toxicity (resazurin)", "assay_type": "cell-based", "procedure": "as §1\nThe following day, all trypsin was aspirated from the tissue and the tissue transferred evenly into 2 ml Eppendorf tubes. The tissue was then digested further using a 37° C. 1 mg/ml collagenase/HBSS (filter sterilised) solution. For each collagenase digestion, 2 ml of enzyme buffer was added to all Eppendorf tubes and the tubes incubated in a 37° C. heating block for 2 mins with 400 rpm agitation. The supernatant from the first two digestions was discarded. After each of the following digestion steps, the tissue was gently triturated using a pipette to release cells. Once trituration was complete the supernatant was retained, added to a tube containing 10 ml cell culture media and stored on ice.\nAll cell containing supernatants were filtered through a 250 μm cell strainer to remove any potentially undigested tissue and myocytes separated from cardiac fibroblast by spinning the supernatant at 1800 g for 45 mins through a Percoll gradient. […]\nas §2"}, "[3]": {"system": "Neonatal rat cardiomyocytes", "test": "Screening purified venom fractions for alterations to cardiomyocyte beat rates", "assay_type": "cell-based", "conditions": "for Highest Achieved Fold Increases in Beat Rate: 1 h; for fold increases to beat rate: dose of 6 μg/ml", "procedure": "Neonatal rat cardiomyocytes were isolated as via standard protocol and seeded at a density of 100,000 cells/96 well. Once myocyte cultures were beating spontaneously in uniform sheets, they were videoed well-by-well using a microscope camera to determine pre-dose beat rates/min. […] Cells were incubated in each fraction in a humidified incubator at 37° C., 5% CO2 for 1 h. After 1 h videos of the cells were re-recorded to obtain the post-dosing beat rate/minute. Fold changes in beat frequency were calculated for each dosed well pair."}, "[4]": {"system": "Human IPSC-derived cardiomyocytes", "test": "Six lead fractions: toxicity to human IPSC-derived cardiomyocytes (resazurin)", "assay_type": "cell-based", "conditions": "for cytotoxicity against human IPSC-derived cardiomyocytes: 7.5, 6, 3.5, 2.5 and 1 μg/ml, 2 h, FIG. 3", "procedure": "Human IPSC-derived cardiomyocytes were purchased from Axol Biosciences and cultured as via their standard methodology. Briefly, cells were recovered from liquid nitrogen storage when required and the cells transferred dropwise into 10 ml of pre-warmed (37° C.) plating media (cardiomyocyte maintenance media+10% FCS+10 μM ROCK inhibitor). Cells were centrifuged at 200×g for 5 mins at room temperature. The supernatant was aspirated from the cell pellet and the cell pellet gently resuspended in 1 ml plating media. Cells were counted using a haemocytometer and trypan blue staining. Cells were plated at a seeding density of 10-20,000 cells/well in fibronectin pre-coated 384 well plates. Cells were incubated at 37° C., 5% CO2 in a humidified incubator overnight before the plating media was removed the following day and replace with fresh maintenance media (No FCS, no ROCK inhibitor). Partial media changes were performed every 2-days until cells formed a single continuous sheet of spontaneously beating cardiomyocytes (7-10 day in culture).\nOnce beating spontaneously, cells were treated with the six lead fractions diluted in maintenance media to final working concentrations of 7.5, 6, 3.5, 2.5 and 1 μg/ml. 30 μl of each fraction dilution was added to triplicate wells of cells and incubated for 2 h at 37° C., 5% CO2 in a humidified incubator. After 2 h, resazurin dye at a final working concentration of 160 μM were added to all wells and the change in fluorescence of the plate monitored over a 5 h timeframe using a BMG Labtech Fluostar plate reader. Percent toxicity was calculated from triplicate wells at each dose and plotted graphically.\nHuman IPSC derived cardiomyocytes were dosed in triplicate with a serial dilution of each of the six venom fractions (7.5, 6, 3.5, 2.5 and 1 μg/ml) for 2 hs at 37° C., 5% CO2 before resazurin dye was added and the change in colour and fluorescence monitored for the following 5 hrs. Percentage toxicity was calculated for each fraction at all doses and plotted graphically (FIG. 3)."}, "[5]": {"system": "rat neonatal cardiomyocyte cells", "assay_type": "cell-based", "conditions": "6 μg/ml, rat cardiomyocytes", "procedure": "Thermal stability of the six lead fractions was investigated. Aliquots of each fraction were heated in a heat block to 37° C. (unheated), 60° C., 80° C. and 100° C. before being used to treat rat neonatal cardiomyocyte cells at a dose of 6 μg/ml. Cardiomyocyte toxicity was assessed after 24 hrs of dosing at each temperature against a similar aliquot of each fraction that had been unheated before dosing. After 24 h, 160 μM Resazurin dye was added to all cells and the change in cardiomyocyte cell viability/metabolism monitored every hour up to 5 h post dye addition. An additional measurement was recorded 24 hs after the dye had been added."}, "[6]": {"conditions": "dogs; study of 2020 (Seljetun et al); cited from earlier work"}, "[7]": {"system": "Caco-2 cells", "test": "Caco-2 permeability assay (bi-directional)", "conditions": "positive control", "procedure": "Cells were seeded on to Millipore Multiscreen Transwell plates at 1×10^5 cells/cm^2. The cells were cultured in DMEM and media was changed every two or three days. On day 20, the permeability study was performed. […] On the day of the assay, the monolayers were prepared by rinsing both basolateral and apical surfaces twice with Hanks Balanced Salt Solution (HBSS) at the desired pH warmed to 37° C. Cells were then incubated with HBSS at the desired pH in both apical and basolateral compartments for 40 min to stabilise physiological parameters.\nThe fluorescent integrity marker lucifer yellow was also included in the dosing solution. Analytical standards were prepared from test compound water dilutions and transferred to buffer, maintaining a ≤1% v/v water concentration. Assay buffer was composed of supplemented HBSS pH 7.4.\nFor assessment of apical to basolateral (A2B) permeability, HBSS was removed from the apical compartment and replaced with test compound dosing solution. The apical compartment insert was then placed into a companion plate containing fresh buffer (containing ≤1% v/v Water). For assessment of B2A permeability, HBSS was removed from the companion plate and replaced with test compound dosing solution. Fresh buffer (containing ≤1% v/v Water) was added to the apical compartment insert, which was then placed into the companion plate.\nAt 120 min, the apical compartment inserts and the companion plates were separated, and apical and basolateral samples diluted for analysis. Test compound permeability was assessed in duplicate. Compounds of known permeability characteristics were run as controls on each assay plate.\nTest and control compounds were quantified by LC-MS/MS cassette analysis using a 7-point calibration with appropriate dilution of the samples. Cyprotex generic analytical conditions were used. The starting concentration (CO) was determined from the dosing solution and the experimental recovery calculated from CO and both apical and basolateral compartment concentrations.\nThe integrity of the polarised cell monolayers throughout the experiment was checked by monitoring lucifer yellow permeation using fluorometric analysis. Permeation of this paracellular marker is low if monolayers have not been damaged. […] If this was not the case, then the result from the affected monolayer was excluded.\nThe determined concentration (nM≡pmol/mL) of each test sample receiver well is multiplied by the volume of the receiver compartment (apical=0.09 mL, basolateral=0.210 mL) to calculate the amount (pmol) of probe substrate permeating the monolayer.\nWhere dQ/dt is the rate of permeation of the drug across the cells, C0 is the donor compartment concentration at time zero and A is the area of the cell monolayer. C0 was obtained from analysis of the dosing solution.\nAn efflux ratio (ER) was calculated from mean A to B and B to A data. This is derived from:\nPercentage recovery (mass balance) of the test compound or positive control substrate was calculated by dividing the sum of the amount (pmol) in the receiver and donor compartments post-incubation by the amount in the initial donor solution at time zero (C0) and expressing as a percentage.\nThe insert was inserted into the well of a plate to form an Apical chamber (above cells) and basolateral chamber (below cells), with a permeable membrane between the two layers. Compound was then added to either the apical or basolateral chamber and the passage of it monitored into the other chamber. Transfer of the test compound from the apical to basolateral chamber was indicative of cellular uptake, simulating transition of the compound from the intestinal lumen to the bloodstream by uptake receptors (Direction A). […] An Efflux ratio was then calculated from the values obtained for A2B and B2A transmission."}, "[8]": {"conditions": "any of the tested doses, up to 12.5 μg/ml"}}, "note": "Marks after values point to notes of the source that are not given here.", "data": [{"compound": "N.aan_I15_R4 (LKCHKLVPPVWKTCPEGKNLCYKMFMVSTSTVPVKRGCIDVCPKDSALVKYVCCSTDKCN)", "values": [{"measurement": "toxicity to rat cardiomyocytes (in words)", "setting": "[1]; [8]", "result": "no visibly or detectible toxicity"}, {"measurement": "toxicity to cardiac fibroblasts (in words)", "setting": "[2]; [8]", "result": "no visibly or detectible toxicity"}, {"measurement": "Highest Achieved Fold Increases in Beat Rate", "setting": "[3]; Dose 6 μg/ml", "result": 3.50, "unit": "fold"}, {"measurement": "fold increases to beat rate", "setting": "[3]", "result": "greater than 3.5 fold"}, {"measurement": "cytotoxicity against human IPSC-derived cardiomyocytes", "setting": "[4]", "result": "no observable cardiomyocyte cellular toxicity"}, {"measurement": "cytotoxicity against human IPSC-derived cardiomyocytes", "setting": "[4]; listed as N.ann_I15_R4", "result": "low levels of cytotoxicity"}, {"measurement": "reduction of cardiomyocyte toxicity after heating", "setting": "[5]; fraction heated at 100° C. vs 37° C., 24 h", "result": "~10", "unit": "%"}]}, {"compound": "N.atr_I28_R3 (LKCNKLVPLFYKTCPAGKNLCYKMFMVSNLTVPVKRGCIDVCPKSSLLVKYVCCNTDRCN)", "values": [{"measurement": "Highest Achieved Fold Increases in Beat Rate", "setting": "[3]; Dose 6 μg/ml", "result": 5.35, "unit": "fold"}, {"measurement": "fold increases to beat rate", "setting": "[3]", "result": "greater than 5 fold"}, {"measurement": "toxicity in human IPSC-derived cells compared to rodent cardiomyocytes", "setting": "[4]; 3.5 μg/ml", "result": "reduction in toxicity"}]}, {"compound": "N.naj_I25_R3 (LKCNKLVPLFYKTCPAGKDLCYKMYMVATPKVPVKRGCIDVCPKSSLLVKYVCCNTDRCN)", "values": [{"measurement": "doses showing rat cardiomyocyte toxicity", "setting": "[1]; neonatal rat cardiomyocytes", "result": "≥ 6", "unit": "µg/mL"}, {"measurement": "doses showing cardiac fibroblast toxicity", "setting": "[2]; neonatal rat cardiac fibroblasts", "result": 12.5, "unit": "µg/mL"}, {"measurement": "Highest Achieved Fold Increases in Beat Rate", "setting": "[3]; Dose 3.5 μg/ml", "result": 13.75, "unit": "fold"}, {"measurement": "fold increases to beat rate", "setting": "[3]", "result": "greater than 8.5 fold"}, {"measurement": "thermal stability (change in cytotoxic activity after heating)", "setting": "[5]; 37, 60, 80, 100° C., FIG. 4", "result": "no significant changes in the activity"}]}, {"compound": "O=c1oc2ccccc2c(O)c1C1CC(c2ccc(-c3ccc(Br)cc3)cc2)Cc2ccccc21", "note": "(stereo not shown) [Brodifacoum, 3-[3-(4′-bromobiphenyl-4-yl)-1,2,3,4-tetrahydronaphth-1-yl]-4-hydroxycoumarin]", "values": [{"measurement": "time present in dog faeces after a single ingestion", "setting": "[6]", "result": "more than 700 days"}]}, {"compound": "O=c1oc2ccccc2c(O)c1C1CC(c2ccc(-c3ccccc3)cc2)Cc2ccccc21", "note": "(stereo not shown) [Difenacoum, 3-[3-p-diphenyl-1,2,3,4-hydronaphth-1-yl]-4-hydroxycoumarin]", "values": [{"measurement": "time present in dog faeces after a single ingestion", "setting": "[6]", "result": "> 650", "unit": "days"}]}, {"compound": "C[C@]12CC[C@@H]3c4ccc(OS(=O)(=O)O)cc4CC[C@H]3[C@@H]1CCC2=O", "note": "[Estrone 3-sulfate, estrone 3-sulfate]", "values": [{"measurement": "Mean % Recovery", "setting": "[7]; A2B", "result": 68.6, "unit": "%"}, {"measurement": "Papp Mean", "setting": "[7]; A2B, 120 min, pH 7.4", "result": "0.225 ×10^−6 cms^−1"}, {"measurement": "Papp Rep 1", "setting": "[7]; A2B, 120 min, pH 7.4", "result": "0.225 ×10^−6 cms^−1"}, {"measurement": "Mean % Recovery", "setting": "[7]; B2A", "result": 85.7, "unit": "%"}, {"measurement": "Papp Mean", "setting": "[7]; B2A, 120 min, pH 7.4", "result": "34.9 ×10^−6 cms^−1"}, {"measurement": "Papp Rep 1", "setting": "[7]; B2A, 120 min, pH 7.4", "result": "33.1 ×10^−6 cms^−1"}, {"measurement": "Papp Rep 2", "setting": "[7]; B2A, 120 min, pH 7.4", "result": "36.6 ×10^−6 cms^−1"}, {"measurement": "ER (efflux ratio)", "setting": "[7]; from mean A to B and B to A data", "result": "155 ^b"}]}]}
